The structures appear in SMILES notation. Counter-ions that a name gives are not always drawn.

One test concerns the target T1, serotonin 1A receptor (Rattus norvegicus, UniProt P19327).
T1 construct: To the receptor fraction of the hippocampus were added a test compound and 0.5 nM of [^3H]; 8-hydroxy-dipropylaminotetralin; from tissue; host or cells: SD rat hippocampus, membrane (receptor) fraction
T1 sequence (P19327 1-422): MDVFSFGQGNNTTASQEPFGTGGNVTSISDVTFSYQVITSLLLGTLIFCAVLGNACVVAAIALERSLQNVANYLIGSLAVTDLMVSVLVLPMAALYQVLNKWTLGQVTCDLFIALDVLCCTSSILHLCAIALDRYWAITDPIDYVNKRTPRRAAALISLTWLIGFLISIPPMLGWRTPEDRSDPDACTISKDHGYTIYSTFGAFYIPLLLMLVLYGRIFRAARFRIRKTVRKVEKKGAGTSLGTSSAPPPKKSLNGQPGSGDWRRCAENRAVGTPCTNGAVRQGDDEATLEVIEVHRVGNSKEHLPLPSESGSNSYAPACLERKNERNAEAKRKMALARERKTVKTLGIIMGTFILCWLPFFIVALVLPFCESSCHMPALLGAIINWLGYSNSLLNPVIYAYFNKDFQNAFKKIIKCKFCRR
Nature of the test: Binding test on [3H] 8-hydroxy-dipropylaminotetralin (serotonin 1A receptor). Particulars: [3H] 8-OH-DPAT 0.5 nM, receptor fraction of rat hippocampus; read-out: 5HT1a.

For the next test, the target named is serotonin 2 receptor (Rattus norvegicus, UniProt P14842). Nature of the test: Binding test on [3H] ketanserin (serotonin 2 receptor). The conditions noted are these: [3H] ketanserin 0.3 nM, receptor fraction of rat cerebral cortex; read-out: 5HT2.
The next test concerns the target α1 adrenalin receptor. The experiment in a line: Binding test on [3H] prazosin (α1 adrenalin receptor). More on the design: species or system rat. Particulars: [3H] prazosin about 0.2 nM, receptor fraction of rat cerebral cortex.

serotonin 2 receptor, sequence (P14842 whole entry): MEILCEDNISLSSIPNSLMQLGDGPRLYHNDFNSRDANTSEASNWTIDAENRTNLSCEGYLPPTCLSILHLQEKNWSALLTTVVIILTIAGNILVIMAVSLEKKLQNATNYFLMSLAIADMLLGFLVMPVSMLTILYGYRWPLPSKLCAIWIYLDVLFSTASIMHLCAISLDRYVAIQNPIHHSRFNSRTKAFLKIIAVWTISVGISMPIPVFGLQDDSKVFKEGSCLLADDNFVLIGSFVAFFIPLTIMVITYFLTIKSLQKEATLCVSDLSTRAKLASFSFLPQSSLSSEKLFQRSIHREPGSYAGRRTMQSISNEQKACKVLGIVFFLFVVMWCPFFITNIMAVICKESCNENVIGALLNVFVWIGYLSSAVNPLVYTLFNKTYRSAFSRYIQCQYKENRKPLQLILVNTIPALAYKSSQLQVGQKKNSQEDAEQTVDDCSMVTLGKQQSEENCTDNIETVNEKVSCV
Description for serotonin 2 receptor: Use was made of SD rats aged 6 to 8 weeks.
The rats were sacrificed by dcapitation to extirpate the cerebra.
The hippocampus was mixed with 50 times (on the wet weight basis) as much a 0.32 M sucrose solution while the cortex was mixed with 10 times as much the same solution. Each mixture was homogenized by using a Teflon glass homogenizer and centrifuged at 1,000×g for 10 min. The supernatant thus obtained was further centrifuged at 20,000×g for 20 min. The obtained precipitate was re-suspended in 50 times (based on the intial wet weight; in the case of the hippocampus) or 10 times (in the case of the cortex) as much a 50 mM Tris hydrochloride (pH 7.4) and incubated at room temperature for 30 min. After centrifuging at 20,000×g for 20 min, the obtained precipitate was further suspended and centrifuged twice each in the same manner. The precipitate thus obtained was suspended in 100 times (based on the initial wet weight; in the case of the hippocampus) or 20 times (in the case of the cortex) as much a 50 mM Tris hydrochloride solution (pH 7.4) to thereby give a receptor fraction. This receptor fraction was stored at −80° C. until using.
(Binding Test on [^3H] Ketanserin)
Next, it was filtered through a glass filter with the use of a cell harvester. After washing the glass filter with 50 mM Tris hydrochloride (pH 7.4), the radioactivity of the receptor was measured with a liquid scintillation counter. The binding detected in the presence of 1 μM of methysergide was referred to as the nonspecific binding.
IC50 was calculated by the probit method, while Ki was determined in accordance with the following formula:
wherein c represents the concentration of the radioisotope-labeled compound, and Kd represents the dissociation constant of the radioisotope-labeled compound with respect to the receptor determined by Scatchard's analysis.

Consider `O=C(CCN1CCCCC1)NCc1ccc2ccn(C3CCN(CCc4ccc(F)cc4)CC3)c2c1` [Example 379, 1-[1-(4-fluorophenethyl)piperidin-4-yl]-6-[3-(piperidin-1-yl)propionylamino]methylindole], for which the Ki at serotonin 1A receptor was found to be 9.65 nM; on serotonin 2 receptor it was 1.25 nM; at α1 adrenalin receptor, 30.3 nM.

With `O=C(CCO)NCc1ccc2ccn(C3CCN(CCc4ccc(F)cc4)CC3)c2c1` [Example 369, 1-[1-(4-fluorophenethyl)piperidin-4-yl]-6-(3-hydroxypropionylamino)methylindole], the values for the Ki on serotonin 1A receptor, on serotonin 2 receptor and on α1 adrenalin receptor were 2.02 nM, 2.88 nM and 121 nM, respectively.

`c1ccc2c(c1)CCN2C1CCN(CC2COc3ccccc3O2)CC1` (stereo not drawn) [Example 77, 1-{1-[(1,4-benzodioxan-2-yl)methyl]piperidin-4-yl}indoline]: the Ki is 44.5 nM at serotonin 1A receptor, 13.7 nM on serotonin 2 receptor and 249 nM on α1 adrenalin receptor.

Take `COc1ccc(C(=O)c2ccc3ccn(C4CCN(CCc5ccc(F)cc5)CC4)c3c2)cn1` [Example 317, 1-[1-(4-fluorophenethyl)piperidin-4-yl]-6-(2-methoxypyridin-5-ylcarbonyl)indole Oxalate]: the Ki on serotonin 1A receptor was 0.76 nM; at serotonin 2 receptor, over 20 nM; at α1 adrenalin receptor, 400 nM.

For the compound `CC1CC(=C2CCN(CCc3ccc(F)cc3)CC2)c2nccnc21` (stereo not drawn) [Example 265, 5-[1-(4-fluorophenethyl)piperidin-4-ylidene]-7-methyl-5,6-dihydrocyclopentapyrazine], the Ki on serotonin 1A receptor was determined as 25.2 nM; at serotonin 2 receptor, 34.2 nM.

For `OCc1ccc(CCN2CCC(N3CCc4ccccc43)CC2)cc1` [Example 23, 1-[1-(4-hydroxymethylphenethyl)piperidin-4-yl]indoline], the Ki at serotonin 1A receptor amounted to 7.4 nM; on serotonin 2 receptor it was 14.6 nM.

Regarding `OC(c1cccnc1)c1ccc2c(c1)N(C1CCN(CCc3ccc(F)cc3)CC1)CC2` (stereo not drawn) [Example 176, 1-[1-(4-fluorophenethyl)piperidin-4-yl]-6-[1-hydroxy-1-(3-pyridyl)methyl]indoline], the results for the Ki on serotonin 1A receptor and on serotonin 2 receptor were 1.67 nM and 0.05 nM, respectively.

`CCN1CCC(N2CC(c3ccc(F)cc3)c3ccccc32)CC1` (stereo not drawn) [Example 240, 1-(1-ethylpiperidin-4-yl)-3-(4-fluorophenyl)indoline]: the values for the Ki on serotonin 1A receptor and on serotonin 2 receptor were over 200 nM and 27.6 nM, respectively.

Regarding `COc1ccc(CCN2CCC(N3CCc4ccccc43)CC2)cc1` [Example 18, 1-[1-(4-methoxyphenethyl)piperidin-4-yl]indoline], the Ki on serotonin 1A receptor was found to be 0.13 nM; at serotonin 2 receptor it was 0.12 nM.

Regarding `OCCOc1cccc2c1N(C1CCN(CCc3ccc(F)cc3)CC1)CC2` [Example 123, 1-[1-(4-fluorophenethyl)piperidin-4-yl]-7-hydroxyethoxyindoline], the Ki on serotonin 1A receptor came out at 251 nM; at serotonin 2 receptor, 2.7 nM.

In the case of `CC(C)NC(=O)Cc1ccc(CCN2CCC(N3CCc4ccccc43)CC2)cc1` [Example 41, 1-[1-(4-N-isopropylcarbamoylmethylphenethyl)piperidin-4-yl]indoline], the Ki turned out to be 19.8 nM at serotonin 1A receptor and 5.03 nM at serotonin 2 receptor.

Consider `COc1ccc(CCN2CCC(N3CCc4ccccc43)CC2)cn1` [Example 52, 1-{1-[2-(2-methoxy-5-pyridyl)ethyl]piperidin-4-yl}indoline], for which the Ki on serotonin 1A receptor is 2.5 nM; at serotonin 2 receptor it was 5.6 nM.

For `Cc1ncsc1CCN1CCC(N2CCc3ccccc32)CC1` [Example 61, 1-[1-(4-methyl-5-thiazolethyl)piperidin-4-yl]indoline], the results for the Ki on serotonin 1A receptor and on serotonin 2 receptor were 5 nM and 12.5 nM, respectively.

Take `Oc1ccc2c(c1)N(C1CCN(CCc3ccc(F)cc3)CC1)CC2` [Example 104, 1-[1-(4-fluorophenethyl)piperidin-4-yl]-6-hydroxyindoline]: the values for the Ki at serotonin 1A receptor and at serotonin 2 receptor were 2.4 nM and 6 nM, respectively.

`OC[C@H]1CN(CCc2ccc(F)cc2)CC[C@@H]1N1CCc2ccccc21` (relative stereo) [Example 82, trans-1-[1-(4-fluorophenethyl)-3-hydroxymethylpiperidin-4-yl]indoline]: the figures for the Ki on serotonin 1A receptor and at serotonin 2 receptor were 71.2 nM and 5.3 nM, respectively.

In the case of `OCCc1ccc(OCCCN2CCC(N3CCc4ccccc43)CC2)cc1` [Example 71, 1-{1-[3-(4-hydroxyethylphenoxy)propyl]piperidin-4-yl}indoline], the Ki at serotonin 1A receptor is 25.4 nM; at serotonin 2 receptor it was 28.2 nM.

On to `c1ccc2c(c1)CCN2C1CCN(CCc2c[nH]c3ccccc23)CC1` [Example 62, 1-{1-[(indol-3-yl)ethyl]-piperidin-4-yl}indoline], for which the figures for the Ki on serotonin 1A receptor and on serotonin 2 receptor were 6.2 nM and 7.4 nM, respectively.

`CCN1CCC(N2CC(CCc3cccc(F)c3)c3ccccc32)CC1` (stereo not drawn) [Example 247, 1-(1-ethylpiperidin-4-yl)-3-(3-fluorophenethyl)indoline]: the results for the Ki on serotonin 1A receptor and on serotonin 2 receptor were over 200 nM and 52.9 nM, respectively.

Turning to `Fc1ccc(CCN2CCC(N3CCc4ccc(Cc5ccccn5)cc43)CC2)cc1` [Example 175, 1-[1-(4-fluorophenethyl)piperidin-4-yl]-6-[1-(2-pyridyl)methyl]indoline], the Ki on serotonin 1A receptor was 1.49 nM; on serotonin 2 receptor, 0.35 nM.

Take `Fc1ccc(CCN2CCC(N3CCc4ccc(-c5nccs5)cc43)CC2)cc1` [Example 172, 1-[1-(4-fluorophenethyl)piperidin-4-yl]-6-(2-thiazolyl)indoline]: the figures for the Ki at serotonin 1A receptor and on serotonin 2 receptor were 0.12 nM and 52.4 nM, respectively.

For the compound `OC(c1ccc2c(c1)N(C1CCN(CCc3ccc(F)cc3)CC1)CC2)c1ccccn1` (stereo not drawn) [Example 174, 1-[1-(4-fluorophenethyl)piperidin-4-yl]-6-[1-hydroxy-1-(2-pyridyl)methyl]indoline], the Ki was 0.24 nM on serotonin 1A receptor and 1.85 nM on serotonin 2 receptor.

In the case of `NCc1ccc(CCN2CCC(N3CCc4ccccc43)CC2)cc1` [Example 35, 1-[1-(4-aminomethylphenethyl)piperidin-4-yl]indoline], the figures for the Ki on serotonin 1A receptor and at serotonin 2 receptor were 16.6 nM and 37.6 nM, respectively.

With `OC(c1ccc(Cl)nc1)c1ccc2c(c1)N(C1CCN(CCc3ccc(F)cc3)CC1)CC2` (stereo not drawn) [Example 192, 1-[1-(4-fluorophenethyl)piperidin-4-yl]-6-[1-hydroxy-1-(2-chloropyridin-5-yl)methyl]indoline], the Ki amounted to 1.02 nM on serotonin 1A receptor and 2.9 nM on serotonin 2 receptor.

Take `CCNc1ccc2c(c1)N(C1CCN(CCc3ccc(F)cc3)CC1)CC2` [Example 112, 1-[1-(4-fluorophenethyl)piperidin-4-yl]-6-ethylaminoindoline]: the results for the Ki on serotonin 1A receptor and at serotonin 2 receptor were 3.2 nM and 165 nM, respectively.

Consider `Fc1ccc(OCCCN2CCC(N3CCc4ccccc43)CC2)cc1` [Example 69, 1-{1-[3-(4-fluorophenoxy)propyl]piperidin-4-yl}indoline], for which the Ki came to 9.7 nM at serotonin 1A receptor and 29.9 nM at serotonin 2 receptor.

Regarding `CCCS(=O)(=O)Nc1ccc2c(c1)N(C1CCN(CCc3ccc(F)cc3)CC1)CC2` [Example 118, 1-[1-(4-fluorophenethyl)piperidin-4-yl]-6-propanesulfonylaminoindoline], the Ki at serotonin 1A receptor worked out at 0.7 nM; at serotonin 2 receptor, 10.4 nM.

As for `COc1ncccc1Cc1ccc2c(c1)N(C1CCN(CCc3ccc(F)cc3)CC1)CC2` [Example 185, 1-[1-(4-fluorophenethyl)piperidin-4-yl]-6-[1-(2-methoxypyridin-3-yl)methyl]indoline], the Ki at serotonin 1A receptor stood at 14.6 nM; at serotonin 2 receptor it was 4.73 nM.

With `Fc1ccc(CCN2CCC(N3CCc4ccc(Cn5cncn5)cc43)CC2)cc1` [Example 213, 1-[1-(4-fluorophenethyl)piperidin-4-yl]-6-(1,2,4-triazol-2-yl)methylindoline], the Ki came out at 1.03 nM on serotonin 1A receptor and 0.18 nM at serotonin 2 receptor.

`Cc1nc2sccn2c(=O)c1CCN1CCC(N2CCc3ccccc32)CC1` [Co. No. 5 given in WO96/23784, 1-{1-[2-(5-oxo-7-methyl-5H-pyrimidino[2,1-b][1,3]thiazol-6-yl)ethyl]piperidin-4-yl}indoline, reference compound]: on α1 adrenalin receptor, the Ki is 16.8 nM.

`Cn1cccc1-c1ccc2ccn(C3CCN(CCc4ccc(F)cc4)CC3)c2c1` [Example 287, 1-[1-(4-fluorophenethyl)piperidin-4-yl]-6-(1-methylpyrrol-2-yl)indole]: the values for the Ki on serotonin 1A receptor and at serotonin 2 receptor were 0.1 nM and over 200 nM, respectively.

With `CC(=O)N(C)Cc1ccc2c(c1)N(C1CCN(CCc3ccc(F)cc3)CC1)CC2` [Example 163, 1-[1-(4-fluorophenethyl)piperidin-4-yl]-6-N-methylacetamidomethylindoline], the Ki was found to be 2.41 nM at serotonin 1A receptor and 7.75 nM at serotonin 2 receptor.

As to `CS(=O)(=O)Nc1ccc2c(c1)N(C1CCN(CCc3ccc(F)cc3)CC1)CC2` [Example 116, 1-[1-(4-fluorophenethyl)piperidin-4-yl]-6-methanesulfonylaminoindoline], the Ki turned out to be 0.5 nM at serotonin 1A receptor and 14.3 nM on serotonin 2 receptor.

In the case of `CCN1CCC(Cc2ccc3c(c2)N(C2CCN(CCc4ccc(F)cc4)CC2)CC3)CC1` [Example 169, 1-[1-(4-fluorophenethyl)piperidin-4-yl]-6-[(1-ethylpiperidin-4-yl)methyl]indoline], the Ki on serotonin 1A receptor stood at 16.4 nM; at serotonin 2 receptor it was 13.8 nM.

Values taken from patent US6579881B2 (Eisai Co., Ltd., priority 1997, dated 2003).
